Tested on: Ba/F3 cells expressing the empty vector (GFP), CALR wild type (CALR wt-GFP) or CALR mutant (CALR del52-GFP)
Assay: Sensitivity of Ba/F3 cells to SAR302503 (CellTiter-Glo cell viability)
Assay type: cell-based, murine
Settings: Ba/F3 CALR wild type vs CALR 52 base pair deletion mutant; 48 hours; dilution series, highest concentration 40 μM; 10 ng/ml interleukin-3; listed as JAK2 kinase inhibitor
Experimental: FIG. 7: The sensitivity of Ba/F3 cells to SAR302503. Ba/F3 cells expressing the empty vector (GFP), CALR wild type (CALR wt-GFP) or CALR mutant (CALR del52-GFP) were analyzed by defining cell viability after 48 hours in presence of […] SAR302503. For relative viability, relative luminescence units were normalized to the DMSO control. Error bars represent standard error of the mean.
The retrovirus was generated and cells were transduced as described before (Zuber et al, 2013). Briefly, PlatE cells (75% confluent in a 10 cm dish) were transfected with 20 μg of the respective viral vector using the Calcium Phosphate Transfection Kit (Sigma #CAPHOS). The medium was changed after 24 hours and viral supernatant was collected at 36, 40, 44 and 60 hours after transfection. […] The cells were analyzed for transduction efficiency by flow cytometry, 48 hours after the final transduction step. The GFP positive cells were sorted by FACS and the sorting efficiency was analyzed by flow cytometry.
To define the sensitivity to the inhibitor SAR302503 (Sanofi), Ba/F3 cells were plated in 96-well plates at 25000 cells per well in triplicates on a dilution series of SAR302503 (highest concentration 40 μM) and in presence of 10 ng/ml interleukin-3. After 48 hours cell viability was determined by the CellTiter-Glo® Luminescent Cell Viability Assay (Promega).

SMILES: Cc1cnc(Nc2ccc(OCCN3CCCC3)cc2)nc1Nc1cccc(S(=O)(=O)NC(C)(C)C)c1 [SAR302503]
- sensitivity of cells to the JAK2 kinase inhibitor SAR302503 (relative cell viability): suppressed equally
